Series [1] relates to pulp fibroblasts. Kind of series: Intracellular cAMP accumulation in pulp fibroblasts. It is filed as cell-based, human. As to conditions: 30 min; forskolin 3 μM, MTII 10 μg·mL-1; basal level 239±36 fmol/well. The procedure:
Pulp fibroblasts (1×10^5) were plated in 24-well-plates in D-MEM® containing 1% antimicotic solution and 10% FBS (Life Technologies, Paisley, UK). The cultures were incubated at 37° C. in a humidified atmosphere of 5% CO2, and allowed to adhere for 2 h. Cells were then washed and incubated with […] Forskolin (positive control), the MC3/4R agonist MTII (10 μg·mL^−1), the MC1R agonist MS05 (10 μg·mL^−1), and PGA-α-MSH (10-300 μg·mL^−1) in the presence of 1 mM isobutylmethylxantine in serum-free medium and incubated for 30 min at 37° C. in a humidified atmosphere of 5% CO2. A non-treated group incubated in serum-free medium alone served as a negative control. Cell supernatants were then removed and the cells were lysed. Intracellular cAMP was quantified using a commercially available enzyme immunoassay kit and a standard curve constructed with 0-3200 fmol μg·mL-1 cAMP (Amersham Bioscience, Little Chalfont, U.K).
A general note: cAMP levels reflect the balance of adenylyl cyclase and phosphodiesterase activity.

Series [2] addresses MCR receptors (melanocortin receptors) on human pulp fibroblasts. The series can be described thus: cell-based or functional assay.
The subject of series [3] is pulp fibroblasts. Kind of series: Cell proliferation by the acid phosphatase method. As to conditions: in solution, FIG. 4 lower part. It is filed as cell-based, human. The procedure: (§1) Cell viability was determined by trypan blue exclusion. Cell proliferation was measured by the acid phosphatase method. Briefly, cells were washed with […] PBS. The buffer added to each well contains 0.1 M sodium acetate (pH 5.5), 0.1% of X-100 Triton and 10 mM of p-nitrophenyl phosphate [pNPP] (Sigma, St Quentin, France). After a 3 h-incubation at 37° C. with 5% 002 the reaction was stopped by the addition of 1 N sodium hydroxide and the absorbance was measured by spectrophotometer at 405 nm (Labsystems, iEMS Reader MF, Gibco). Cell viability and proliferation were measured at 24 and 96 hours. Cell spreading and adhesion were observed by confocal microscopy. AlamarBlue® (Serotec) was used to assess cellular proliferation. The AlamarBlue test is a non-toxic, water-soluble, calorimetric redox indicator that changes color in response to cell metabolism. […] After 6 hours, […] of incubation media was transferred to 96-well plates and measured at 590 nm and 630 nm in order to determine the percentage of AlamarBlue reduction. The ability of free α-MSH and PGA-α-MSH to promote proliferation and/or adhesion of fibroblasts was also determined. Cell viability was determined by trypan blue exclusion and the proliferation was measured by the acidic phosphatase method (FIG. 4).

Series [4] deals with pulp fibroblasts. The series can be described thus: Pulp fibroblast adhesion by confocal microscopy. Format: cell-based, human. As to conditions: 2 days of culture; FIG. 5.
Description: Cell spreading and adhesion were observed by confocal microscopy. […] In this study, 5×10^4 pulp fibroblasts were seeded on the top of LbL-coated 14 mm-diameter coverslips (n=3) placed on 24-well plates. […] After 2 days of proliferation, cells were fixed with 4% PFA during 1 hour, permeabilized with 0.1% Triton X-100 for 1 hour and incubated for 20 min with Alexa Fluor 546-conjugated phalloidin (Molecular Probes) for F-actin labeling and 5 min with 200 nM DAPI (Sigma) for nuclear staining. Cells were mounted on microscope slides using Vectashield (Vector) and imaged by confocal microscopy (Zeiss, LSM 510). CLSM observations were documented with a Zeiss LSM 510 microscope using a ×40/1.4 oil immersion objective at 0.4 μm z-section intervals. FITC fluorescence was detected after excitation at 488 nm with a cutoff dichroic mirror 488 nm and an emission band-pass filter 505-530 nm (green). All experiments were performed with cells in solution.
Series [5] relates to LPS-stimulated pulp fibroblasts. Kind of series: TNF-α, IL-8 and IL-10 production by LPS-stimulated pulp fibroblasts (ELISA). Format: cell-based, human. As to the method:
Human pulp fibroblasts were obtained from human third molar germ tissue extracted for orthodontic reasons (Dental School, Strasbourg). These tissues were used with the patient's informed consent and approval by the Research Ethics Committee. Human pulp fibroblasts and mouse embryo fibroblasts (NIH 3T3, a gift of IGBMC, Strasbourg, France) were cultured in Dulbecco's modified Eagle's medium (D-MEM®) containing 1% antimicotic solution and 10% FBS (Life Technologies, Paisley, UK). The cultures were incubated at 37° C. in a humidified atmosphere of 5% CO2. When the cells reached sub-confluence, they were harvested with trypsin and sub-cultured. The fibroblast cultures used for all experiments were from passages three to six. Fibroblasts (5×10^5) were seeded in 24-well plates (Nunc, CML, Nemours, France) and incubated with LPS (10 ng·mL^−1) from E, coli in the presence or absence of free α-MSH or PGA-Q-MSH coupled peptides, in D-MEM® without FBS. At different time-points of incubation, cells were centrifuged and the levels of TNF-α, IL-10 or IL-8 in cell-free supernatants were determined using commercially available ELISA kits (Endogen, Woburn, Mass.). Studies of the effects of multilayer films consisting of PGA-α-MSH coupled peptides were conducted by seeding 5×10^5 cells directly onto the film in a 24-well plate as previously described (Chluba et al. Biomacromolecules. 2001, 2:800-805). All experiments were performed at least three times. […]
On the technique in general: An ELISA detects its analyte on a solid surface through an enzyme-linked reagent.

The subject of series [6] is pulp fibroblasts. It is filed as cell-based, human. As to the method: as §1

On to MTII, for which, in the series with pulp fibroblasts [1], the cAMP concentration came out at 459±14 fmol/well.
In turn, MTII (peptide) returned an intracellular cAMP accumulation in pulp fibroblasts, 30 min in series [2] of 459 fmol/well.
For the compound “HS—CH2CH2-Ser-Tyr-Ser-Nle-Glu-His-D-Phe-Arg-Trp-Gly-Lys-Pro-Val-COOH [α-MSH]”, the figures for the “proliferation of pulp fibroblasts” value in the series with pulp fibroblasts [3] and in the series on pulp fibroblasts [3] (listed as free α-MSH) were “inhibits the proliferation” and “without effect”, respectively. In addition, in the series on pulp fibroblasts [4], the “adhesion of pulp fibroblasts” value is listed as “without effect”. For the same compound, the “LPS-induced IL-8 secretion” value in series [5] (100 μg·mL^−1, 6 h time period) is given as “no inhibition”. Moreover, in series [5] (LPS 10 ng mL^−1, 100 μg·mL-1 peptide, late (4 hours)), the “IL-10 production by LPS-stimulated pulp fibroblasts” value is “induced significant levels”. Besides, the “amount of IL-8 produced (LPS-stimulated)” value in series [5] (concentration increased to 400 μg·mL-1, data not shown) is listed as “did not change”. Besides, the “LPS induced TNF-α secretion” value is recorded as “significantly inhibited” in series [5] (early timepoints (20 min to 2 h), LPS 10 ng mL^−1, 100 μg·mL-1 peptide) and “this effect was lost” in series [5] (later time-points (4-6 h), LPS 10 ng mL^−1, 100 μg·mL-1 peptide). For the same compound, in the series with pulp fibroblasts [6], the “viability of pulp fibroblasts” value is “not the viability”.
As for `C=C[C@@]1(C)CC(=O)[C@]2(O)[C@@]3(C)[C@@H](O)CCC(C)(C)[C@@H]3[C@H](O)[C@H](OC(C)=O)[C@@]2(C)O1` [forskolin, Forskolin], the cAMP concentration with pulp fibroblasts [1] is recorded as 3367±242 fmol/well.

Values taken from patent publication US20140050773A1, “COMPOUND COMPRISING ALPHA-MSH FOR USE IN ENDODONTIC REGENERATION” (Universite De Strasbourg, priority 2010, published 2014).
